Assay results as given in a melting point compilation (Tetko et al.; mined from patent text by program, amines drawn as free bases though some values may be those of a salt).

Point of comparison: `FC(F)(F)c1cc(Br)c2nc(N3CCN(c4ncccc4C(F)(F)F)CC3)[nH]c2c1`, melting point 196 °C. Against it:
- CC(C)(C)c1cc(CCc2ccccc2NC(=O)NCc2ccccc2)cc(C(C)(C)C)c1O — lower, 181 to 183 °C
- CCCCc1nc2c(N)nc3ccccc3c2n1CCCCCCCCNS(C)(=O)=O — lower, 121 to 124 °C
- O=C(CNc1ccc(F)cc1)Nc1ccccc1C(=O)O — higher, 217 to 219 °C
- N#CCOc1cccnc1N — lower, 100 to 101 °C
- CC(C)c1ccc(S(=O)(=O)NC(=O)C(Oc2cc(OCc3ccsc3)ccc2C#N)c2ccccc2)cc1 (racemic) — lower, 187 to 189 °C
- CC(C)(C)c1ccc(CCC=O)cc1NC(=O)CC1c2ccccc2Oc2ccccc21 — lower, 176 to 177 °C
- COc1cc2c(cc1Nc1ncc(Cl)c(Nc3cc(C#N)ccc3OC)n1)CCN(CC(N)=O)CC2 — lower, 100 to 125 °C
- COc1cc(Cl)c(N)cc1C(=O)NCC1CCCO1 (configuration not stated) — lower, 109 to 110 °C
- Clc1cc(N2CCCCCC2)nc(-c2ccccc2)n1 — lower, 64 to 66 °C
- CCC1C(C)=NN=C(c2ccc(OC)c(OC)c2)c2cc(C)ccc21 (configuration not stated) — lower, 156 to 158 °C
- O=c1[nH]c2ncc(-c3ccc(-n4cccn4)cc3)nc2n1CCC1CCOCC1 — higher, 294 to 296 °C
- CCCCCn1c2ccc(C(=O)NN3CCCCC3)cc2c2ccc(OC)cc21 — lower, 178 to 179 °C
- CC#Cc1ccc(NC(=O)c2ccccc2NCc2ccncc2)cc1 — lower, 147 to 155 °C
- O=C1CC(c2cccc(-c3csc(C(=O)NCCO)n3)c2)=Nc2ccc(-n3cccc3)cc2N1 — higher, 236 to 238 °C
- C#CCN1C(=O)COc2cc(-c3ncc(C(F)(F)F)c(C)c3Cl)c(F)cc21 — lower, 156 to 157 °C
- N#CCCCOc1ccc(C(=O)O)cc1 — lower, 193 to 194 °C
- CC1(C)Oc2ccc(Cl)cc2C(NS(C)(=O)=O)C1O (configuration not stated) — higher, 198 to 202 °C
- CNC1(c2ccccc2)CCC(c2[nH]c3ccccc3c2CCc2ccncc2)CC1 (configuration not stated) — higher, 224 to 227 °C
- O=C(CC(O)c1ccncc1)c1ccccc1O (configuration not stated) — lower, 150 °C
- COc1cc(N)c(Cl)cc1C(=O)NN1CCN(Cc2ccc(N(C)C)cc2)CC1 — higher, 208 to 210 °C
- CCc1nnc(-c2ccc(OC)cc2)n1-c1ccc(N(C)C)cc1 — lower, 136 °C
- COc1cc(O)c(C(=O)C=Cc2ccccc2)c(OC)c1 — lower, 85.5 °C
- CCOC(=O)c1c(N2CCN(C(=O)c3cccs3)CC2)c2cnccc2n(Cc2cccc(F)c2)c1=O — lower, 135 °C
- CCOC(=O)C1CCN(c2nnc(-c3ccc(C)cc3)c(-c3ccc(C)cc3)n2)CC1 — lower, 102 to 104 °C
- COc1ccc(C(=O)O)nc1OC1CCCC1 — lower, 96 to 99 °C
- CCc1cn2ccc(NC(=O)c3cc4cc(C(F)(F)F)cnc4n3Cc3cccc(F)c3)cc2n1 — higher, 264 to 265 °C
- Cc1noc(NS(=O)(=O)c2ccc(NCc3ccccc3)cc2)c1C — lower, 47 to 48 °C
- CCNc1nc2ccc(CCc3cn4c(n3)CC(C)CC4)cc2o1 (configuration not stated) — lower, 159 to 161 °C
- O=C(Cl)ON1C(=O)c2ccccc2C1=O — lower, 113 to 115 °C
- CCOC(=O)N1CCN=C1CC(c1ccccc1)c1ccccc1 — lower, 78 to 80 °C
- CS(=O)(=O)Nc1ccc2[nH]c(=O)n(CCCCN3CC=C(c4ccccc4)CC3)c(=O)c2c1 — lower, 193 to 195 °C
- CN(C)C(=O)c1cccn1N1C(=O)c2ccccc2C1=O — lower, 153 to 155 °C
- Cc1cc(Cl)nnc1-c1ccccc1 — lower, 122 °C
- COc1cc(Oc2ccc(S(C)(=O)=O)nc2)cc2cc(C3=NCC(CC(=O)NC4CC4)S3)[nH]c12 (configuration not stated) — higher, 248 to 249 °C
- CCCc1ccc(OCc2ccc(OCc3nc(-c4ccccc4)oc3C)cc2)cc1OCC(=O)OC — lower, 100 to 101 °C
- Nc1c(Cl)cc(Nc2ncnc3cnc(N[C@H]4CC[C@H](C(=O)O)CC4)nc23)cc1Cl — higher, 339 °C
- COc1c(CBr)nc2sc(Cl)cn2c1=O — lower, 160 to 162 °C
- CCCC1=C(C#N)C(c2ccccc2Cl)c2c(n[nH]c2-c2ccccc2)N1 (configuration not stated) — higher, 262 °C
- CC(C)(C)OC(=O)CN1CCC(C)(N)C1=O (configuration not stated) — lower, 72 to 77 °C
- CC(=O)NC1CC(n2cc(C=CBr)c(=O)[nH]c2=O)OC1CBr (configuration not stated) — lower, 178 to 180 °C
- Cc1cc(C)c(COC2CC(n3cc(F)c(=O)[nH]c3=O)OC2CO)c(C)c1 (configuration not stated) — lower, 179 to 181 °C
- CCCOc1c(OC)cc(C(CCC(C(=O)O)c2cc(OC)c(OC)c(OC)c2)C(=O)O)cc1SC (configuration not stated) — lower, 172 to 174 °C
- CCCCc1ncc(/C=C2\C(=O)NC(=O)N2CCC(C)C)n1Cc1ccc(C(=O)O)cc1 — lower, 143 to 146 °C
- CC(C)S(=O)(=O)c1cc(OCc2ccccc2F)c2[nH]nc(Nc3nccs3)c2c1 — higher, 268 to 269 °C
- Cc1ccc(-c2nsc3[nH]c4ccc(C)cc4c(=O)c23)cc1 — higher, 330 °C
- CC(=O)Oc1ccccc1NC(=O)CBr — lower, 79 to 82 °C
- COc1cc(C(F)(F)F)c2[nH]c3c(c2c1)CNCC3 — lower, 140 to 144 °C
- CN1C(=O)CN=C(c2ccccc2F)c2cc(NC(=O)NCCO)ccc21 — lower, 156 to 160 °C
- Cc1ccc2nc(C)c(=O)n(-c3ccc(Cl)cc3)c2c1 — lower, 144 to 145 °C
- CCCCN(CCCC(=O)O)C(=O)c1ccccc1 — lower, 62 to 64 °C
- O=c1c([N+](=O)[O-])c[nH]c2sccc12 — higher, 288 to 291 °C
- CC(C)On1c(-c2ccccc2)nc2c(N)nc3ccccc3c21 — lower, 188 to 191 °C
- O=C1C2CCCN2S(=O)(=O)N1CCl (configuration not stated) — lower, 46.5 to 47.5 °C
- CCOC(=O)c1cnc2cn[nH]c2c1Sc1ccccc1 — lower, 130 to 131 °C
- COc1cccc(OC)c1C(=O)Nc1nnc(-c2ccc(Cl)cc2)s1 — higher, 238 to 240 °C
- CC(C)c1nc2cc(NC(=O)c3c(C(=O)O)cnn3C)ccn2n1 — higher, > 250 °C
- CCCCCCCCCCCCCC(=O)OCC1OC(n2cc(F)c(=O)n(C(=O)c3ccc(C)cc3)c2=O)CC1OC(=O)CCCCCCCCCCCCC (configuration not stated) — lower, 76 to 77 °C
- O=C(O)C1Oc2ccc3c(-c4ccccc4)noc3c2O1 (configuration not stated) — lower, 187 to 190 °C
- Clc1ccc2[nH]cc(C3=CCC4(CC3)OCCO4)c2c1 — lower, 178 to 181 °C
- CCC=C1SC(=S)N(CC(=O)O)C1=O — lower, 138 to 140 °C
- OC1(OCc2ccccc2)C(Cl)=C(Cl)C=CC1OCc1ccccc1 (configuration not stated) — lower, 74 to 75 °C
- O=C(N[C@H]1CC[C@H](CCN2CCN(c3nccc4c3OCC4)CC2)CC1)c1ccc(-c2cccnc2)cc1 — higher, 235 °C
- COc1ccc(S(=O)(=O)C2(C(=O)O)CCN(C(C)(C)C)CC2)cc1 — higher, 204 °C
- Cc1cc(O)c(C)cc1O — lower, 60 to 62 °C
- COc1c(N)cc(C)cc1N — lower, 67 to 69 °C
- O=C1NC(=O)C2(c3ccccc3)CC1C2 — higher, 217 to 218 °C
- COc1ccc(Br)c(C=O)c1OC(C)=O — lower, 119 to 120 °C
- Cc1nc2c(N)nc3ccccc3c2n1CCOCCNS(=O)(=O)C(C)C — lower, 172 to 175 °C
- N#Cc1cc(C2=NOC(c3cc(Cl)cc(Cl)c3)(C(F)(F)F)C2)ccc1F (configuration not stated) — lower, 136 to 139 °C
- NS(=O)(=O)c1cccc(-c2cc(-c3nc(-c4ccc(Cl)c(Cl)c4)cc(C(F)(F)F)n3)ccn2)c1 — higher, 247 °C
- CCc1ccc(Nc2c(C#N)cnc3cc(OC)c(OC)cc23)cc1 — higher, 248 to 250 °C
- COc1ccc(CCCCNC(=O)CCl)cc1OC — lower, 94 to 95 °C
- CCCCNC(=O)NS(=O)(=O)c1cc(Cl)ccc1C(=O)OC(C)C — lower, 129 °C
- COc1ccc(Cc2nnc3c4ccccc4c(Nc4cccc(-c5nn[nH]n5)c4)nn23)cc1 — higher, 292 to 293 °C
- CS(=O)c1nnc2n1C=Cc1ccccc1C2 (configuration not stated) — lower, 176 to 177 °C
- CCc1oc2ccccc2c1C(=O)N(C)Cc1ccc2cc(O)ccc2c1 — lower, 80 to 90 °C
- Cc1cc(Cl)cc(CO[C@H]2CCCN(Cc3nc(=O)[nH][nH]3)[C@H]2c2ccccc2)c1 — higher, 227 to 228 °C
- CC(O)(CCN)C1(F)C=CC(c2ccccc2)=CC1 (configuration not stated) — lower, 144 to 146 °C
- CCS(=O)(=O)CCC(=O)NNC(=O)N1Cc2ccccc2Oc2ccc(Cl)cc21 — lower, 181 to 184 °C
- Clc1ccc(C=Cc2ccccc2)cc1Cl — lower, 87.7 °C
- COCCOc1ccc(CCNC(=O)C=Cc2ccccc2)cc1S(N)(=O)=O — lower, 133 °C
- CN1C(=O)CN(c2cccc(Cl)c2)NC1=O — lower, 178 to 180 °C
- O=C(CC(=O)C1CC1)c1ccccn1 — lower, 77 to 78 °C
- CCCCCCCCS(=O)(=O)CC(CS(=O)(=O)c1ccc(OC)cc1)C(=O)NO (configuration not stated) — lower, 134 °C
- CC(C)(C#N)c1cc(Cn2ccnc2)cc(C(N)=O)c1 — lower, 149 to 150 °C
- NC1=NS(=O)N=C1NCCCN(Cc1cccc(F)c1)c1ccccn1 (configuration not stated) — lower, 160 to 162 °C
- COc1ccc(I)cc1C(=O)O — lower, 150 to 152 °C
- c1ccc(Nc2nc3c(s2)CCc2[nH]ncc2-3)nc1 — higher, 297 to 299 °C
- COC(=O)c1cc(N)c(C)c(-n2cccc2)c1 — lower, 112 °C
- CC(C)(C)OC(=O)CS(=O)c1cccc(-c2nc(=O)c3ccccc3s2)n1 (configuration not stated) — lower, 159 °C
- CCCCc1oc2ccc(NS(=O)(=O)c3ccc(C)cc3)cc2c1C(=O)c1ccc(OCCCN(CCCC)CCCC)cc1 — lower, 110 °C
- C[C@@H]1C[C@](C)(O)[C@H](C)N1c1ccc(C#N)c(Cl)c1 — lower, 132 to 133 °C
- CC(C)(C)c1ccc(-c2c(Cl)c(CN3C(=O)CCC3=O)nc3sc4c(c23)CCN(Cc2ccccc2)C4)cc1 — higher, 198 to 199 °C
- CN(C)C(=O)COC(=O)c1cc(S(N)(=O)=O)c(Cl)cc1NCc1ccco1 — lower, 193 to 194 °C
- Cc1c2c(cn1C)N(C)C(=O)C(OC(=O)c1ccccc1)N=C2c1ccccc1Cl (configuration not stated) — higher, 228 to 229 °C
- FC(F)c1nc2ccccc2n1-c1nc(NCc2ccncc2)nc(N2CCOCC2)n1 — lower, 188 to 190 °C
- C#CCON=C(C(=O)OC)c1nsc(NC(=O)OC(C)(C)C)n1 — lower, 72 to 75 °C
- Fc1cnc2[nH]ccc2c1 — lower, 110 °C
- COCCOc1ccc(CSc2cnn(C(C)(C)C)c(=O)c2Cl)cc1 — lower, 106 to 107 °C
- CS(=O)(=O)NC(=O)C1(CCCCCCCCCCCCC2(C(N)=O)CC2)CC1 — lower, 119 to 120 °C
- Cc1ccc(-c2c(NS(=O)(=O)c3ccc(C(C)(C)C)cc3)ncnc2OCCOc2ccc(N)cc2)cc1 — lower, 190 to 191 °C
